What is called EC50 is the concentration needed to bring the measured effect to its halfway point. The solubility (thermodynamic) is solubility found after equilibrating the solid with the medium. What is called CC50 is the concentration that lowers cell viability or growth by half. By solubility is commonly meant the concentration that dissolves in the medium under given conditions. A higher solubility goes with a readily soluble substance.

The results in this text go back to ChEMBL document CHEMBL2417542 (Bioorg Med Chem Lett, 2013).

≈ marks a conversion by molar mass, not a printed value.

Series [1] relates to Human immunodeficiency virus 1. Briefly: Antiviral activity against HIV1 3B harboring reverse transcriptase K103N/Y181C double mutant infected in human MT2 cells assessed as protection against virus-induced effect by MTT assay. The series is classed as functional, organism-based. (Tetrazolium dyes change colour on reduction, which living cells bring about.)
Series [2] can be described thus: Aqueous solubility of the compound in Britton-Robinson buffer at pH 6.5 after 48 hrs by shake-flask method. The series is classed as physicochemical.
Series [3] has as its system Human immunodeficiency virus 1. Briefly: Antiviral activity against HIV1 3B harboring reverse transcriptase Y181C mutant infected in human MT2 cells assessed as protection against virus-induced effect by MTT assay. The series is classed as functional, organism-based.
Series [4] concerns Human immunodeficiency virus 1. The series is described as follows: Antiviral activity against HIV1 3B harboring reverse transcriptase Y181C mutant infected in human MT4 cells assessed as protection against virus-induced effect. As to conditions: Human immunodeficiency virus 1, 3B; call rule not given here. The series is classed as functional, organism-based.
In series [5] the test system is Human immunodeficiency virus 1. Briefly: Antiviral activity against wild type HIV1 3B infected in human MT4 cells assessed as protection against virus-induced effect. The format is functional, organism-based. As to conditions: Human immunodeficiency virus 1, 3B.
The test system of the next series is MT2. Briefly: (§1) Cytotoxicity against human MT2 cells assessed as growth inhibition. The format is cell-based. As to conditions: mt2.
The nature of series [6]: Aqueous solubility of the compound. The format is physicochemical. The following applies: aqueous medium.
Series [7] is described as follows: Solubility of the compound in water by HPLC analysis. The format is physicochemical.
The nature of series [8]: as §1. The format is cell-based. The following applies: MT2 cells.
Series [9] can be described thus: Equilibrium solubility of the compound by shake-flask method. The series is classed as physicochemical.
Series [10] is described as follows: Intrinsic solubility of the compound in water at 25 degC after 7 days by HPLC analysis. The series is classed as physicochemical. The following applies: buffer, 168 h.
Where [11] appears, read: Human immunodeficiency virus 1, 3B, MT2, read-out: EC50.

With `Cc1cc(C)c(Nc2cc(OCCN3CCOCC3)nc(Nc3ccc(C#N)cc3)n2)c(C)c1`, the EC50 in [1] (setting [11]) is 0.06 µM; in series [3] (setting [11]) it was 0.7 µM. For the same molecule, the thermodynamic solubility at 48 h in series [2] came out at 12.5 µg/mL (≈ 27.3 µM).
In the case of `Cc1cc(C)c(Nc2cc(OCCCN3CCOCC3)nc(Nc3ccc(C#N)cc3)n2)c(C)c1`, the concentration giving a half-maximal response (EC50) in [1] (setting [11]) is 0.038 µM; in series [3] (setting [11]), 0.48 µM. This molecule came in with a thermodynamic solubility at 48 h in series [2] of 27.3 µg/mL (≈ 57.8 µM).
Taken in the same sequence, the figures for `Cc1cc(C)c(Nc2nc(Nc3ccc(C#N)cc3)nc(OCCN3CCOCC3)n2)c(C)c1` were 0.11 µM, 0.7 µM and 4.42 µg/mL (≈ 9.62 µM).
Turning to `Cc1cc(C)c(Nc2nc(Nc3ccc(C#N)cc3)nc(OCCCN3CCOCC3)n2)c(C)c1`, the results for the EC50 in series [1] (setting [11]) and in series [3] (setting [11]) were 0.031 µM and 0.31 µM, respectively. In addition, the thermodynamic solubility at 48 h in series [2] was found to be 15.3 µg/mL (≈ 32.3 µM).
In the same order, the values of `Cc1cc(C#N)cc(C)c1Nc1nc(Nc2ccc(C#N)cc2)nc(OCCCN2CCOCC2)n1` are 0.042 µM, 1 µM and 13.3 µg/mL (≈ 27.4 µM).
With `Cc1cc(/C=C/C#N)cc(C)c1Nc1nc(Nc2ccc(C#N)cc2)nc(OCCCN2CCOCC2)n1`, the solubility (thermodynamic) at 48 h in [2] amounted to 14.2 µg/mL (≈ 27.8 µM).
As for `Cc1cc(F)c(Nc2nc(Nc3ccc(C#N)cc3)nc(OCCCN3CCOCC3)n2)c(F)c1`, the EC50 is 0.07 µM in [1] (setting [11]) and 0.35 µM in [3] (setting [11]). This molecule also showed a thermodynamic solubility at 48 h in [2] of 22.9 µg/mL (≈ 47.6 µM).
For the molecule `CCc1cc(F)c(Nc2nc(Nc3ccc(C#N)cc3)nc(OCCCN3CCOCC3)n2)c(F)c1`, the EC50 stood at 0.05 µM in series [1] (setting [11]) and 0.5 µM in series [3] (setting [11]).
Taken in the same sequence, the figures for `CC(C)c1cc(F)c(Nc2nc(Nc3ccc(C#N)cc3)nc(OCCCN3CCOCC3)n2)c(F)c1` were 0.03 µM and 0.27 µM.
In the case of `N#Cc1ccc(Nc2nc(Nc3c(F)cc(C4CC4)cc3F)nc(OCCCN3CCOCC3)n2)cc1`, the EC50 was determined as 0.15 µM in series [1] (setting [11]) and 1.1 µM in series [3] (setting [11]).
In the same order, the values of `Cc1cc(C)c(Nc2nc(Nc3ccc(C#N)cc3)nc(OCCC3CCNCC3)n2)c(C)c1` are 0.1 µM and 1 µM.
Taken in the same sequence, the figures for `Cc1cc(C)c(Nc2nc(Nc3ccc(C#N)cc3)nc(OCCCC3CCNCC3)n2)c(C)c1` were 0.14 µM and 1.2 µM.
As for `Cc1cc(C)c(Nc2ncnc(Nc3ccc(C#N)cc3)n2)c(C)c1`, the thermodynamic solubility at 48 h in series [2] was determined as 0.2 µg/mL (≈ 0.605 µM).
On to `Cc1cc(C)c(Nc2ccnc(Nc3ccc(C#N)cc3)n2)c(C)c1` [DAPIVIRINE], for which the EC50 in series [1] (setting [11]) turned out to be 0.039 µM; in series [4] it was 0.007 µM; in series [5] it was 0.0012 µM; in series [3] (setting [11]) it was 0.039 µM. Besides, in the series on MT2, the CC50 was found to be 2 µM.
`Cc1cc(C#N)cc(C)c1Oc1nc(Nc2ccc(C#N)cc2)nc(N)c1Br` [ETRAVIRINE] gave a solubility in series [6] below 1 µg/mL.
Consider `Cc1ccnc2c1NC(=O)c1cccnc1N2C1CC1` [NEVIRAPINE], for which the EC50 result in [1] (mt2) and in series [3] (mt2) was “Not Active” throughout. In series [7], the concentration in solution (solubility) was 167 µg/mL (≈ 627 µM). For the same molecule, the CC50 in [8] was above 100 µM.
Molecule `CN1C(C(=O)Nc2ccccn2)=C(O)c2ccccc2S1(=O)=O` [PIROXICAM] returned a solubility (thermodynamic) at 48 h in [2] of 7.2 µg/mL (≈ 21.7 µM). In series [9], this molecule had a thermodynamic solubility of 6.4 µg/mL (≈ 19.3 µM).
Molecule `CC(C)=CCOc1cc(NC(=S)c2ccoc2C)ccc1Cl` [UC 781] displayed an Intrinsic_solubility in [10] below 0.03 µg/mL.
